Measured values published in patent US9956242B2, “Pharmaceutical composition for prevention or treatment of cognitive function disorders comprising spinosin” (MINISTRY OF FOOD AND DRUG SAFETY, priority 2011, dated 2018).
Read-outs that look alike come from different tables or passages of the source.

Assays:
[1] = test system: mice with memory impairment induced by scopolamine; conditions: for Present Experiment latency time: 24 hours after learning; for Learning latency time: learning trial; for latency time increase compared to control group 2 (scopolamine only): present experiment
[2] = test system: mice with memory impairment induced by scopolamine; test: Passive avoidance test 2 (zizyphi spinosi semen extract), scopolamine-induced memory impairment; assay type: in vivo, ICR mice; conditions: control group 1, donepezil 5 mg/Kg, scopolamine 1 mg/Kg i.p.
Experimental: (§1) 6-week-old ICR mice (Orient Bio Inc., Korea), weighing about 26 to 28 g, were fed with water and food freely available for 5 days in an environment, where the temperature was about 23±2° C., the humidity was about 55±10%, and the light-dark cycle was 12 hours (Animal Laboratory at the College of Pharmacy in Kyung Hee university), and used in the experiments.
After 30 minutes, learning about the passive avoidance test apparatus was performed on the mice in drug administration groups 1 to 4 and control groups 1 to 3, respectively. Specifically, the mice were placed in the first space kept light, and after a seek time of about 20 seconds, the guillotine door was opened, and the latency time taken for the mice to move to the second space kept dark was measured.
After 24 hours since the learning was completed, the present experiment was performed on drug administration groups 1 to 4 and control groups 1 to 3, respectively. The latency tire taken for all four feet of the mouse to enter the dark space after the guillotine door was opened from the seek time of 10 seconds was measured up to 300 seconds. […]

[3] = test system: mice with memory impairment induced by scopolamine; test: Y-maze test, scopolamine-induced memory impairment; assay type: in vivo, ICR mice; conditions: control group 1, donepezil 5 mg/Kg; scopolamine 1 mg/Kg i.p.
Experimental: as §1
A Y-maze was prepared for the experiment. The Y-maze had three arms, in which each arm was 42 cm in length, 3 cm in width, and 12 cm in height, the angle formed by three arms was 120 degrees, and the Y-maze was made of black polyvinyl resin.
160 mg of the zizyphi spinosi semen extract of Example 1 was dissolved in 4 mL of 10% Tween 80 (Polyoxyethylene sorbitan monooleate: Sigma, U.S.A.) and administered to drug administration groups 1 and 2 at doses of 100 mg/Kg and 200 mg/Kg. […]
After 30 minutes, the mice in drug administration groups 1 and 2 and control groups 1 to 3 were carefully placed on one of three arms of the Y-maze, divided into A, B, and C, respectively, and allowed to freely move, and then the arms where the mice entered were recorded. At this time, only the case where the mouse’ tail fully entered the arm was recorded as the arm where the experimental animal entered, and the case where the mouse entered the same arm was also recorded. […]

[4] = test system: mice with memory impairment induced by scopolamine; test: Morris water maze test, scopolamine-induced memory impairment; assay type: in vivo, ICR mice; conditions: control group 1, donepezil 5 mg/Kg, scopolamine 1 mg/Kg i.p.
Experimental: as §1
A Morris water maze test apparatus was prepared for the experiment. Four labels such as star, square, triangle, and circle were put at regular intervals on a circular pool of 90 cm in diameter and 45 cm in height, and a platform of 29 cm in height was positioned below the star. Water was filled up to 0.5 cm from the platform (water temperature: 21±1° C.) and became cloudy with pigment such that the platform was not visible from the surface of the water.
160 mg of the zizyphi spinosi semen extract of Example 1 was dissolved in 4 mL of 10% Tween 80 (Polyoxyethylene sorbitan monooleate: Sigma, U.S.A.) and administered to drug administration groups 1 and 2 at doses of 100 mg/Kg and 200 mg/Kg. Meanwhile, donepezil (Sigma-Aldrich Chemistry Co.) was administered to control group 1 at a dose of 5 mg/Kg, and 10% Tween 80 was administered to control groups 2 and 3 at a dose of 0.15 mL.
After 30 minutes, the time taken for the mice, put down in one section of the pool, in drug administration groups 1 and 2 and control groups 1 to 3 to reach the platform was measured for 60 seconds. After 30 minutes, the time taken for the mice, repositioned to the original position, to reach the platform was measured until 60 seconds. The above-described process was repeated 4 times, and the average values were obtained. The experiment was performed in the same manner as on the first day while administering the drugs for 4 days, except that the position where the mice were first put down was changed.

[5] = control group 1, donepezil 5 mg/Kg, scopolamine 1 mg/Kg i.p.

Question: Which results are given for `COc1cc2c(cc1OC)C(=O)C(CC1CCN(Cc3ccccc3)CC1)C2` (stereo not drawn) [donepezil]?
Answer: Present Experiment latency time [1, 5]: 151.9 ± 37.24 s; Learning latency time [1, 5]: 25.13 ± 13.68 s; Present Experiment latency time ([2]; 24 hours after learning): 140.5 ± 25.47 s; Learning latency time ([2]; learning trial): 17.25 ± 5.365 s; Alternation behavior (%) [3]: 65.71 ± 10.19%; Total entry (total number of arm entries) [3]: 34.75 ± 7.265; Time to reach the platform ([4]; 1st day): 59.34 ± 2.055 s; Time to reach the platform ([4]; 2nd day): 48.75 ± 14.98 s; Time to reach the platform ([4]; 3rd day): 42.80 ± 15.16 s; Time to reach the platform ([4]; 4th day): 34.35 ± 13.80 s

Question: For `COc1cc2oc(-c3ccc(O)cc3)cc(=O)c2c(O)c1[C@@H]1O[C@H](CO)[C@@H](O)[C@H](O)[C@H]1O[C@@H]1O[C@H](CO)[C@@H](O)[C@H](O)[C@H]1O` [spinosin, 6-(2-O-beta-D-Glocopyranosyl-beta-D-glucopyranosyl)-5-hydroxy-2-(4-hydroxyphenyl)-7-methoxy-4H-1-benzopyran-4-one], which “latency time increase compared to control group 2 (scopolamine only)” value (“latency time increase” for short) ([1]; 2.5 mg/Kg) is on record?
Answer: about 20 seconds

Question: And the Learning latency time ([1]; 2.5 mg/Kg, scopolamine 1 mg/Kg i.p. 30 min later)?
Answer: 25.88 ± 13.72 s

Question: What about the “Present Experiment latency time” value ([1]; 2.5 mg/Kg, scopolamine 1 mg/Kg i.p., measured up to 300 seconds) of the same compound?
Answer: 59.13 ± 46.88 s

Question: What about the “latency time increase” value ([1]; 5 mg/Kg) of the same compound?
Answer: about 2.5 times

Question: And the Learning latency time ([1]; 5 mg/Kg, scopolamine 1 mg/Kg i.p. 30 min later)?
Answer: 29.38 ± 18.17 s

Question: And the “Present Experiment latency time” value ([1]; 5 mg/Kg, scopolamine 1 mg/Kg i.p., measured up to 300 seconds)?
Answer: 107.1 ± 91.70 s

Question: What about the “latency time increase” value ([1]; 10 mg/Kg) of the same compound?
Answer: about 3 times

Question: What about the Learning latency time ([1]; 10 mg/Kg, scopolamine 1 mg/Kg i.p. 30 min later) of the same compound?
Answer: 20.50 ± 9.196 s

Question: What about the “Present Experiment latency time” value ([1]; 10 mg/Kg, scopolamine 1 mg/Kg i.p., measured up to 300 seconds) of the same compound?
Answer: 131.3 ± 69.94 s

Question: What about the “latency time increase” value ([1]; 20 mg/Kg) of the same compound?
Answer: about 3.5 times

Question: What about the Learning latency time ([1]; 20 mg/Kg, scopolamine 1 mg/Kg i.p. 30 min later) of the same compound?
Answer: 36.00 ± 16.45 s

Question: What about the “Present Experiment latency time” value ([1]; 20 mg/Kg, scopolamine 1 mg/Kg i.p., measured up to 300 seconds) of the same compound?
Answer: 146.0 ± 83.53 s

Question: What about the “latency time compared to control group 2 (in words)” value ([1]; drug administration groups 1 to 4, 2.5 to 20 mg/Kg) of the same compound?
Answer: significantly increased

Question: And the “memory and learning ability compared to control group 1 (donepezil) (in words)” value ([1]; drug administration groups 3 and 4, 10 and 20 mg/Kg)?
Answer: improved to an extent similar to that in control group 1
